Test results reported in patent publication US11634447B2 (priority 2012, dated 2023).
pIC50: −log10 of the molar value.

System: bacterial strain LF82 binding to the glycoprotein BSA-(Mannose)3
Assay: Bacterial Binding Assay (BBA)
Format: cell-based, Escherichia coli
Details: read-out: Bacterial Binding Assay IC50, LF82/Luciferase strain binding to BSA-(Man)3 coated plates, luminescence
Method in brief: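 Inhibition of LF82/luciferase E. coli adhesion is read as luminescence after washing off unbound cells. Compound and bacteria (10^7 per well) are co-incubated 40-75 min at room temperature on wells coated with 0.5-2 μg/mL BSA-(Man)3, with BSA-only wells as background; IC50 values derived.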

Row | SMILES | pIC50
1 | OC[C@H]1O[C@H](C#Cc2csc3c(C#C[C@H]4O[C@H](CO)[C@@H](O)[C@H](O)[C@@H]4O)csc23)[C@@H](O)[C@@H](O)[C@@H]1O [Compound 132, (2R,3S,4R,5S,6R)-2-(hydroxymethyl)-6-[2-[6-[2-[(2R,3S,4R,5S,6R)-3,4,5-trihydroxy-6-(hydroxymethyl)tetrahydropyran-2-yl]ethynyl]thieno[3,2-b]thiophen-3-yl]ethynyl]tetrahydropyran-3,4,5-triol] | 7.28
2 | OC[C@H]1O[C@H](C#Cc2cc3sc(C#C[C@H]4O[C@H](CO)[C@@H](O)[C@H](O)[C@@H]4O)cc3s2)[C@@H](O)[C@@H](O)[C@@H]1O [Compound 133] | 7.55
3 | COc1cc(C#C[C@H]2O[C@H](CO)[C@@H](O)[C@H](O)[C@@H]2O)ncc1C#C[C@H]1O[C@H](CO)[C@@H](O)[C@H](O)[C@@H]1O [Compound 134, (2R,3S,4R,5S,6R)-2-(hydroxymethyl)-6-[2-[4-methoxy-5-[2-[(2R,3S,4R,5S,6R)-3,4,5-trihydroxy-6-(hydroxymethyl)tetrahydropyran-2-yl]ethynyl]-2-pyridyl]ethynyl]tetrahydropyran-3,4,5-triol] | 7.36
4 | OC[C@H]1O[C@H](C#Cc2cnc(C#C[C@H]3O[C@H](CO)[C@@H](O)[C@H](O)[C@@H]3O)cn2)[C@@H](O)[C@@H](O)[C@@H]1O [Compound 135] | 6.24
5 | OC[C@H]1O[C@H](C#Cc2ccc(C#C[C@H]3O[C@H](CO)[C@@H](O)[C@H](O)[C@@H]3O)c3ccccc23)[C@@H](O)[C@@H](O)[C@@H]1O [Compound 136, (2R,3S,4R,5S,6R)-2-(hydroxymethyl)-6-[2-[4-[2-[(2R,3S,4R,5S,6R)-3,4,5-trihydroxy-6-(hydroxymethyl)tetrahydropyran-2-yl]ethynyl]-1-naphthyl]ethynyl]tetrahydropyran-3,4,5-triol] | 6.84
6 | OC[C@H]1O[C@H](C#Cc2cccc3cccc(C#C[C@H]4O[C@H](CO)[C@@H](O)[C@H](O)[C@@H]4O)c23)[C@@H](O)[C@@H](O)[C@@H]1O [Compound 137, (2R,3S,4R,5S,6R)-2-(hydroxymethyl)-6-[2-[8-[2-[(2R,3S,4R,5S,6R)-3,4,5-trihydroxy-6-(hydroxymethyl)tetrahydropyran-2-yl]ethynyl]-1-naphthyl]ethynyl]tetrahydropyran-3,4,5-triol] | 6.15
7 | OC[C@H]1O[C@H](C#Cc2ccc(C#C[C@H]3O[C@H](CO)[C@@H](O)[C@H](O)[C@@H]3O)s2)[C@@H](O)[C@@H](O)[C@@H]1O [Compound 138] | 7.51
8 | OC[C@H]1O[C@H](c2cccc(-c3ccc(-c4cccc([C@H]5O[C@H](CO)[C@@H](O)[C@H](O)[C@@H]5O)c4)cc3)c2)[C@@H](O)[C@@H](O)[C@@H]1O [Compound 139, (2R,3S,4R,5S,6R)-2-(hydroxymethyl)-6-[3-[4-[3-[(2R,3S,4R,5S,6R)-3,4,5-trihydroxy-6-(hydroxymethyl)tetrahydropyran-2-yl]phenyl]phenyl]phenyl]tetrahydropyran-3,4,5-triol] | 7.34
9 | COC(=O)Cc1cc(-c2cccc([C@H]3O[C@H](CO)[C@@H](O)[C@H](O)[C@@H]3O)c2)ccc1-c1cccc([C@H]2O[C@H](CO)[C@@H](O)[C@H](O)[C@@H]2O)c1 [Compound 140, Methyl 2-[2,5-bis[3-[(2R,3S,4R,5S,6R)-3,4,5-trihydroxy-6-(hydroxymethyl)tetrahydropyran-2-yl]phenyl]phenyl]acetate] | 6.45
10 | OC[C@H]1O[C@H](c2ccc(C#C[C@H]3O[C@H](CO)[C@@H](O)[C@H](O)[C@@H]3O)cc2)[C@@H](O)[C@@H](O)[C@@H]1O [Compound 141, (2R,3S,4R,5S,6R)-2-(hydroxymethyl)-6-[2-[4-[(2R,3S,4R,5S,6R)-3,4,5-trihydroxy-6-(hydroxymethyl)tetrahydropyran-2-yl]phenyl]ethynyl]tetrahydropyran-3,4,5-triol] | 6.47
11 | Cc1cc(C#C[C@H]2O[C@H](CO)[C@@H](O)[C@H](O)[C@@H]2O)ccc1[C@H]1O[C@H](CO)[C@@H](O)[C@H](O)[C@@H]1O [Compound 142] | 7.04
12 | Cc1cc([C@H]2O[C@H](CO)[C@@H](O)[C@H](O)[C@@H]2O)ccc1C#C[C@H]1O[C@H](CO)[C@@H](O)[C@H](O)[C@@H]1O [Compound 143] | 6.62
13 | OC[C@H]1O[C@H](c2ccc(C#C[C@H]3O[C@H](CO)[C@@H](O)[C@H](O)[C@@H]3O)c(F)c2)[C@@H](O)[C@@H](O)[C@@H]1O [Compound 144] | 6.63
14 | COc1cc([C@H]2O[C@H](CO)[C@@H](O)[C@H](O)[C@@H]2O)ccc1C#C[C@H]1O[C@H](CO)[C@@H](O)[C@H](O)[C@@H]1O [Compound 145] | 6.37
15 | OC[C@H]1O[C@H](c2cc3ccc(C#C[C@H]4O[C@H](CO)[C@@H](O)[C@H](O)[C@@H]4O)cc3[nH]2)[C@@H](O)[C@@H](O)[C@@H]1O [Compound 146, (2R,3 S,4R,5S,6R)-2-(hydroxymethyl)-6-[2-[2-[(2R,3 S,4R,5S,6R)-3,4,5-trihydroxy-6-(hydroxymethyl)tetrahydropyran-2-yl]-1H-indol-6-yl]ethynyl]tetrahydropyran-3,4,5-triol] | 6.78
16 | COc1cc([C@H]2O[C@H](CO)[C@@H](O)[C@H](O)[C@@H]2O)ccc1-c1ccc([C@H]2O[C@H](CO)[C@@H](O)[C@H](O)[C@@H]2O)c(C)c1 [Compound 147] | 6.87
17 | Cc1c(C#C[C@H]2O[C@H](CO)[C@@H](O)[C@H](O)[C@@H]2O)cccc1[C@H]1O[C@H](CO)[C@@H](O)[C@H](O)[C@@H]1O [Compound 148] | 6.89
18 | Cc1cc([C@H]2O[C@H](CO)[C@@H](O)[C@H](O)[C@@H]2O)ccc1-c1ccc([C@H]2O[C@H](CO)[C@@H](O)[C@H](O)[C@@H]2O)c(C)c1 [Compound 149] | 7.57
19 | Cc1cc(-c2ccc([C@H]3O[C@H](CO)[C@@H](O)[C@H](O)[C@@H]3O)cc2F)ccc1[C@H]1O[C@H](CO)[C@@H](O)[C@H](O)[C@@H]1O [Compound 150, (2R,2,3S,3,4R,4,5S,5,6R,6)-6,6(2-fluoro-3methyl-[1,1biphenyl]-4,4diyl)bis(2-(hydroxymethyl)tetrahydro-2H-pyran-3,4,5-triol)] | 7.15
20 | COc1cc(-c2ccc([C@H]3O[C@H](CO)[C@@H](O)[C@H](O)[C@@H]3O)cc2)ccc1[C@H]1O[C@H](CO)[C@@H](O)[C@H](O)[C@@H]1O [Compound 151] | 6.73
21 | Cc1cc(C#Cc2ccc([C@H]3O[C@H](CO)[C@@H](O)[C@H](O)[C@@H]3O)c(C)c2)ccc1[C@H]1O[C@H](CO)[C@@H](O)[C@H](O)[C@@H]1O [Compound 152, (2R,3S,4R,5S,6R)-2-(hydroxymethyl)-6-[2-methyl-4-[2-[3-methyl-4-[(2R,3S,4R,5S,6R)-3,4,5-trihydroxy-6-(hydroxymethyl)tetrahydropyran-2-yl]phenyl]ethynyl]phenyl]tetrahydropyran-3,4,5-triol] | 7.51
22 | Cc1cc(-c2cnc(-c3ccc([C@H]4O[C@H](CO)[C@@H](O)[C@H](O)[C@@H]4O)c(C)c3)cn2)ccc1[C@H]1O[C@H](CO)[C@@H](O)[C@H](O)[C@@H]1O [Compound 153, (2R,3S,4R,5S,6R)-2-(hydroxymethyl)-6-[2-methyl-4-[5-[3-methyl-4-[(2R,3S,4R,5S,6R)-3,4,5-trihydroxy-6-(hydroxymethyl)tetrahydropyran-2-yl]phenyl]pyrazin-2-yl]phenyl]tetrahydropyran-3,4,5-triol] | 7.04
